Source: the supplement of paper PMC5908809

What was measured:
[1] = test system: normal NK cells expanded with K562-aAPC; assay: percent inhibition of viability; higher = more inhibition; settings: 72 h, IL-2 2.5 ng/mL
Method: (§1)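 Drug sensitivity and resistance testing on K562-aAPC-expanded normal NK cells: 5 concentrations (10-fold steps over a 10,000-fold range), 72 h at 37 °C, viability by CellTiter-Glo normalised to DMSO and benzethonium chloride controls; DSS from the fitted curve.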

[2] = test system: DERL-7 (IL-2 2.5 ng/mL); assay: as above; settings: 72 h
[3] = test system: IMC-1 (IL-2 20 ng/mL); assay: as above; settings: 72 h
[4] = test system: KAI3 (IL-2 2.5 ng/mL); assay: as above; settings: 72 h
[5] = test system: KHYG-1 (IL-2 2.5 ng/mL); assay: as above; settings: 72 h
[6] = test system: NK-92 (IL-2 2.5 ng/mL); assay: as above; settings: 72 h
[7] = test system: NK-YS (IL-2 2.5 ng/mL); assay: as above; settings: 72 h
[8] = test system: NKL (IL-2 2.5 ng/mL); assay: as above; settings: 72 h
[9] = test system: SNK-6 (IL-2 2.5 ng/mL); assay: as above; settings: 72 h
[10] = test system: YT (IL-2 2.5 ng/mL); assay: as above; settings: 72 h
[11] = test system: normal primary NK cells, pool 1 (3 donors) (IL-2 2.5 ng/mL); assay: as above; settings: 72 h
[12] = test system: normal primary NK cells, pool 1 (3 donors), resting (IL-2 0 ng/mL); assay: as above; settings: 72 h
[13] = test system: normal primary NK cells, pool 2 (3 donors) (IL-2 2.5 ng/mL); assay: as above; settings: 72 h
[14] = test system: normal primary NK cells, pool 3 (3 donors) (IL-2 2.5 ng/mL); assay: as above; settings: 72 h
[15] = test system: normal NK cells expanded with K562-aAPC; assay: drug sensitivity score (DSS) (DSS units); higher = more sensitive; extreme values may be limits of the assay; settings: 72 h; IL-2 2.5 ng/mL
Method: as §1

[16] = test system: DERL-7 (IL-2 2.5 ng/mL); assay: as above; settings: 72 h
[17] = test system: IMC-1 (IL-2 20 ng/mL); assay: as above; settings: 72 h
[18] = test system: KAI3 (IL-2 2.5 ng/mL); assay: as above; settings: 72 h
[19] = test system: KHYG-1 (IL-2 2.5 ng/mL); assay: as above; settings: 72 h
[20] = test system: NK-92 (IL-2 2.5 ng/mL); assay: as above; settings: 72 h
[21] = test system: NK-YS (IL-2 2.5 ng/mL); assay: as above; settings: 72 h
[22] = test system: NKL (IL-2 2.5 ng/mL); assay: as above; settings: 72 h
[23] = test system: SNK-6 (IL-2 2.5 ng/mL); assay: as above; settings: 72 h
[24] = test system: YT (IL-2 2.5 ng/mL); assay: as above; settings: 72 h
[25] = test system: normal primary NK cells, pool 1 (3 donors) (IL-2 2.5 ng/mL); assay: as above; settings: 72 h
[26] = test system: normal primary NK cells, pool 1 (3 donors), resting (IL-2 0 ng/mL); assay: as above; settings: 72 h
[27] = test system: normal primary NK cells, pool 2 (3 donors) (IL-2 2.5 ng/mL); assay: as above; settings: 72 h
[28] = test system: normal primary NK cells, pool 3 (3 donors) (IL-2 2.5 ng/mL); assay: as above; settings: 72 h

Cc1ccc(-c2cc(C(F)(F)F)nn2-c2ccc(S(N)(=O)=O)cc2)cc1 [Celecoxib] (max concentration tested 10000 nM)
percent inhibition of viability [%]
Settings	1 nM	10 nM	100 nM	1000 nM	10000 nM
[1]	5.69	5.19	8.1	13.1	11.9
[2]	-4.04	-0.66	2.98	0.77	20.1
[3]	-1.63	4.12	3.17	8.92	21.4
[4]	-0.1	5.86	3.78	10.9	16.6
[5]	-2.14	0.22	3.78	5.35	11.5
[6]	-11.1	9.29	13.9	6.91	36.8
[7]	3.79	1.41	5.74	5.5	17.7
[8]	12.9	8.06	8.99	8.49	13.6
[9]	7.19	19.3	11.5	33.2	29.1
[10]	6.8	6.48	10.3	10.8	21.6
[11]	-3.14	-6.46	-5.04	-13.6	17.4
[12]	-5.64	-19.9	-6.8	-14.5	38.8
[13]	-5.46	-3.07	8.51	-1.27	21.4
[14]	-11.6	1.86	9.55	-0.12	12.8

Settings	drug sensitivity score
[15]	0.46
[16]	0.68
[17]	1.17
[18]	0.73
[19]	0
[20]	2.8
[21]	0.44
[22]	0
[23]	7.44
[24]	1.78
[25]	0.17
[26]	1.32
[27]	0.61
[28]	0.08
